In patent US20160115540A1, “PRODRUGS AND DRUGS” (Biogen MA Inc., priority 2013, published 2016):
Counter-ions that a name gives are not always drawn.

System: jejunum
Assay: Transcriptional profiling on Affymetrix GeneChips, single dose, naïve mice: jejunum
Assay type: in vivo, C57BL/6 mice
Settings: for Number of differentially expressed genes identified: Jenjunum: Naïve, Single Dose
Description: Treated mice were sacrificed at 2, 7, or 12 hours. Tissues (liver, spleen, kidney, jejunum, cortex, hippocampus, striatum and whole blood) were collected and analyzed by transcriptional profiling on mouse Affymetrix GeneChips.
Tissues (liver, spleen, kidney, jejunum, cortex, hippocampus, striatum and whole blood) were collected and analyzed by transcriptional profiling on mouse Affymetrix GeneChips.
Animals were exposed to CO2 and whole blood collected via cardiac puncture. Two 100 μl aliquots of whole blood were collected in 1.5 mL microcentrifuge tubes and snap frozen in liquid nitrogen. Peripheral (liver, spleen, kidney and jejunum) and CNS brain (cerebellum, hippocampus, striatum and cortex) tissues were harvested and snap frozen in liquid nitrogen, with special care taken to collect tissues of similar size and from the same location. All samples were stored at −80° C. until RNA extraction was conducted.
For RNA preparation, frozen tissues were placed in 2 mL RNAse-free 96-well blocks with 1.5 mL QIAzol Lysis Reagent (QIAgen) and a 3.2 mm stainless steel bead (BioSpec Products, Bartlesville, Okla.). Tissues were disrupted for four cycles of 45 seconds in a Mini-Beadbeater (Biospec Products). RNA was extracted in chloroform and the aqueous phase was mixed with an equal volume of 70% ethanol. Extracted RNA was applied to RNeasy 96 plates and purified by the spin method according to the manufacturer's protocol (RNeasy 96 Universal Tissue Protocol, QIAgen, Hilden Germany).
Automated sample amplifications and biotin labelings were carried out using the NuGEN Ovation RNA Amplification system V2 (Cat #3100), Ovation WB reagent (Cat #1300) and Encore Biotin module (Cat #4200) (NuGEN Technologies, Inc, San Carlos, Calif.) according to manufacturer's recommendations using an Arrayplex automated liquid handler (Beckman Coulter, Indianapolis, Ind.). Two micrograms of biotin labeled sscDNA probe were hybridized to Affymetrix GeneChip Affymetrix HT_MG-430_PM plate arrays with modified conditions as described in Allaire et al. Washing and staining of the hybridized arrays were completed as described in the GeneChip Expression analysis technical manual for HT plate arrays using the Genechip® Array Station (Affymetrix, Santa Clara, Calif.) with modifications as described in Allaire et al. The processed GeneChip® plate arrays were scanned using GeneTitan scanner (Affymetrix, Santa Clara, Calif.).
Affymetrix scans were subject to quality control (QC) measures. These tests included a visual inspection of the distribution of raw signal intensities and an assessment of RNA degradation, relative log expression (RLE), and normalized unsealed standard error (NUSE). All sample scans that passed these QC metrics were included in the analysis.
All CEL files were subjected to GC-content-based Robust Multi-array Average (GCRMA) normalization (version 2.20.0) (Irizarry R A, et al. Nucleic Acids Res 2003; 31:e15; Li C, et al. Genome Biol 2001; 2:[…]0032). Expression levels were log (base 2) transformed.
All calculations and analyses were carried out using R (version 2.11.1) and Bioconductor computational tools (Gentleman R. Springer Science+Business Media 2005).

SMILES: COC(=O)/C=C/C(=O)OC [DMF, dimethyl fumarate]
- Pir (1429001_PM_at) differential expression (Jejunum, 12 hr): 3.79
- Setd4 (1435405_PM_at) differential expression (Jejunum, 12 hr): 1.66
- Slc5a4b (1422757_PM_at) differential expression (Jejunum, 12 hr): 2.21
- Ugt2b5 (1419622_PM_at) differential expression (Jejunum, 12 hr): 4.92
- Ugt2b36 (1455595_PM_at) differential expression (Jejunum, 12 hr): 2.94
- Number of differentially expressed genes identified: Jenjunum (100 mpk DMF-vs-100 mpk MMF, 2 h after last dosing): 1
- Number of differentially expressed genes identified: Jenjunum (100 mpk DMF-vs-100 mpk MMF, 7 h after last dosing): 2
- Number of differentially expressed genes identified: Jenjunum (100 mpk DMF-vs-100 mpk MMF, 12 h after last dosing): 0
- Number of differentially expressed genes identified: Jenjunum (100 mpk, vs Vehicle, 2 h after last dosing): 62
- Number of differentially expressed genes identified: Jenjunum (100 mpk, vs Vehicle, 7 h after last dosing): 44
- Number of differentially expressed genes identified: Jenjunum (100 mpk, vs Vehicle, 12 h after last dosing): 37
- FC 9130221J17Rik (1443159_PM_at) (jejunum, 100DMF-vs-Veh, 2 h): 2.30
- FC Acss2 (1446542_PM_at) (jejunum, 100DMF-vs-Veh, 2 h): 1.68
- FC Akr1b8 (1448894_PM_at) (jejunum, 100DMF-vs-Veh, 2 h): 7.35
- FC Akr1c13 (1418672_PM_at) (jejunum, 100DMF-vs-Veh, 2 h): 1.62
- FC Akr1c19 (1455454_PM_at) (jejunum, 100DMF-vs-Veh, 2 h): 2.45
- FC Areg (1421134_PM_at) (jejunum, 100DMF-vs-Veh, 2 h): 3.58
- FC Cbr1 (1460196_PM_at) (jejunum, 100DMF-vs-Veh, 2 h): 1.55
- FC Cbr3 (1427912_PM_at) (jejunum, 100DMF-vs-Veh, 2 h): 54.72
- FC Ces1e (1419510_PM_at) (jejunum, 100DMF-vs-Veh, 2 h): 1.85
- FC Ces1f (1424266_PM_s_at) (jejunum, 100DMF-vs-Veh, 2 h): 2.48
- FC Ces1g (1449486_PM_at) (jejunum, 100DMF-vs-Veh, 2 h): 4.06
- FC Dnase2a (1430135_PM_at) (jejunum, 100DMF-vs-Veh, 2 h): 1.77
- FC Dppa5a (1416552_PM_at) (jejunum, 100DMF-vs-Veh, 2 h): 3.07
- FC Dusp4 1428834_PM_at (jejunum, 100DMF-vs-Veh, 2 h): 1.51
- FC Entpd5 (1433763_PM_at) (jejunum, 100DMF-vs-Veh, 2 h): 1.53
- FC Ereg (1419431_PM_at) (jejunum, 100DMF-vs-Veh, 2 h): 2.50
- FC Ero1l (1419030_PM_at) (jejunum, 100DMF-vs-Veh, 2 h): 1.92
- FC Ero1l (1449324_PM_at) (jejunum, 100DMF-vs-Veh, 2 h): 1.50
- FC Esd (1441604_PM_at) (jejunum, 100DMF-vs-Veh, 2 h): 1.71
- FC Fam13a (1456611_PM_at) (jejunum, 100DMF-vs-Veh, 2 h): 1.54
- FC Gclc (1424296_PM_at) (jejunum, 100DMF-vs-Veh, 2 h): 4.25
- FC Gclc (1455959_PM_s_at) (jejunum, 100DMF-vs-Veh, 2 h): 3.13
- FC Gsr (1421816_PM_at) (jejunum, 100DMF-vs-Veh, 2 h): 2.23
- FC Gss (1441931_PM_x_at) (jejunum, 100DMF-vs-Veh, 2 h): 1.95
- FC Gss (1448273_PM_at) (jejunum, 100DMF-vs-Veh, 2 h): 1.67
- FC Gsta2 (1421040_PM_a_at) (jejunum, 100DMF-vs-Veh, 2 h): 3.82
- FC Gsta3 (1423436_PM_at) (jejunum, 100DMF-vs-Veh, 2 h): 3.23
- FC Gsta3 (1423437_PM_at) (jejunum, 100DMF-vs-Veh, 2 h): 4.03
- FC Gstm1 (1416416_PM_x_at) (jejunum, 100DMF-vs-Veh, 2 h): 2.30
- FC Gstm1 (1425627_PM_x_at) (jejunum, 100DMF-vs-Veh, 2 h): 2.57
- FC Gstm1 (1448330_PM_at) (jejunum, 100DMF-vs-Veh, 2 h): 2.47
- FC Gstm3 (1427473_PM_at) (jejunum, 100DMF-vs-Veh, 2 h): 2.37
- FC Gstm3 (1427474_PM_s_at) (jejunum, 100DMF-vs-Veh, 2 h): 1.56
- FC LOC100504040 (1457279_PM_at) (jejunum, 100DMF-vs-Veh, 2 h): 2.18
- FC Mafg (1448916_PM_at) (jejunum, 100DMF-vs-Veh, 2 h): 2.20
- FC Nqo1 (1423627_PM_at) (jejunum, 100DMF-vs-Veh, 2 h): 2.16
- FC Osgin1 (1424022_PM_at) (jejunum, 100DMF-vs-Veh, 2 h): 2.08
- FC Prss8 (1418320_PM_at) (jejunum, 100DMF-vs-Veh, 2 h): 2.60
- FC Ptk6 (1442923_PM_at) (jejunum, 100DMF-vs-Veh, 2 h): −2.42
- FC Setd4 (1425239_PM_at) (jejunum, 100DMF-vs-Veh, 2 h): 2.09
- FC Setd4 (1435405_PM_at) (jejunum, 100DMF-vs-Veh, 2 h): 1.91
- FC Setd4 (1460373_PM_a_at) (jejunum, 100DMF-vs-Veh, 2 h): 1.91
- FC Slc35e3 (1428805_PM_at) (jejunum, 100DMF-vs-Veh, 2 h): 1.53
- FC Slc40a1 (1417061_PM_at) (jejunum, 100DMF-vs-Veh, 2 h): 2.33
- FC Srr (1453421_PM_at) (jejunum, 100DMF-vs-Veh, 2 h): 1.99
- FC Srxn1 (1425351_PM_at) (jejunum, 100DMF-vs-Veh, 2 h): 1.71
- FC Tifa (1426501_PM_a_at) (jejunum, 100DMF-vs-Veh, 2 h): −2.43
